Reference: US20210238170A1, “5,5-Difluoro- and 5-Fluoro-5-Methyl-C-Glycoside Derivatives Useful As Dual SGLT1 / SGLT2 Modulators” (Janssen Pharmaceutica NV, priority 2018, published 2021)
Where two headings read alike, the source gives them in different places.

Columns and labels:
human SGLT1 = target: T1, human SGLT1 (Homo sapiens, UniProt P13866); test: SGLT1 in vitro assay: Na-dependent 14C-AMG uptake in CHO-K1 cells stably expressing human SGLT1; format: cell-based; conditions: for inhibition at 0.3 µM: read-out: SGLT1 % Inh @ 0.3 μM
T1 construct: expressed in transfected cells
T1 sequence (P13866 1-664): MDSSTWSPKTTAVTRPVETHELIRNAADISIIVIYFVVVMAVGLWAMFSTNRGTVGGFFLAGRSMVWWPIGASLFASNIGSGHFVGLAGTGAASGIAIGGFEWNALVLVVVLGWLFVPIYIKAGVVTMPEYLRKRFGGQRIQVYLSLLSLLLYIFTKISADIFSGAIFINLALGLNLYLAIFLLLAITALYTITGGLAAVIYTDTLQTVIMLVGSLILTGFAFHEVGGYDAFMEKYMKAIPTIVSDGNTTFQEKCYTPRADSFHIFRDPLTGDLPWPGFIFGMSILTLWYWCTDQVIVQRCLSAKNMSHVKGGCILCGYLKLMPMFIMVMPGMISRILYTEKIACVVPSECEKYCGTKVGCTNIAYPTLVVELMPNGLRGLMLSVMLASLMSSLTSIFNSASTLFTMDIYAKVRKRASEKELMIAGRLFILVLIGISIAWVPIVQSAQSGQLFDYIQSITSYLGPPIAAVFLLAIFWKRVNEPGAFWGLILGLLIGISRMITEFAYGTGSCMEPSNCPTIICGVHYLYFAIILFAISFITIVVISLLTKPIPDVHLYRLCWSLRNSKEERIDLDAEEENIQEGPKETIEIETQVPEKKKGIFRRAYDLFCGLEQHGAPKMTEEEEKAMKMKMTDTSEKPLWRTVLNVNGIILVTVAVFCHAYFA
Outline: (§1)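 CHO-K1 cells stably expressing human SGLT1 or SGLT2, induced with 10 mM Na-butyrate for 24 h. Compounds (0.001–10 μM) in Na+-containing HEPES/Tris buffer pH 7.4 were applied for 10 min, then 14C-AMG ([…]) for 2 h at 37°C; Na-dependent uptake read by scintillation; %-inhibition or IC50.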

SD rats = test: Oral Glucose Tolerance Test (OGTT) in SD rats: blood glucose excursion AUC and urine glucose excretion; format: in vivo, rat; conditions: mean ± SE; for response vs control in vivo at 1 mg/kg / response vs control in vivo at 10 mg/kg: Rattus norvegicus, 2 h, n = 8, read-out: 120-min Blood Glucose AUC vs Vehicle (%); for Urine Glucose Excretion (g/0-4 hr): n = 8
Experimental: Biological Example 2: In Vivo Assay
Oral Glucose Tolerance Test (OGTT) in SD Rats
Overnight fasted SD rats were allocated into vehicle or test compound treatment groups based on their body weights (n=8 in each group). The animals were orally dosed with vehicle or test compound at a volume of 10 ml/kg at 30-minute prior to OGTT. The animals then received an OGTT challenge with 2 g/kg (50% glucose solution at the volume of 4 ml/kg, orally). The animals were immediately transferred into metabolic cages after they were dosed with the glucose. Blood glucose levels were measured at 0 (pre-OGTT), 30, 60, and 120 minutes after OGTT using one-touch Glucometer. Blood glucose excursion AUC (area under the curve of blood glucose) was determined from the blood glucose levels measured at the timepoints.
Table 9 below, presents the measured efficacy of the test compound(s), expressed as the percentage (%) of blood glucose AUC vs that in vehicle group. The data is interpreted such that, the smaller the percentage of blood glucose AUC of compound vs vehicle, the greater the efficacy of the test compound. Urine volume and urine glucose concentrations (tested by using Olympus system with Genzyme diagnostics assay reagent) were measured to determine the urine glucose excretion (UGE) in 4-hr period after OGTT (0-4 hours).

human SGLT2 = target: T2, human SGLT2 (Homo sapiens, UniProt P31639); test: SGLT2 in vitro assay: Na-dependent 14C-AMG uptake in CHO-K1 cells stably expressing human SGLT2; format: cell-based; conditions: for inhibition at 0.3 µM: read-out: SGLT2 % Inh @ 0.3 μM
T2 construct: expressed in transfected cells
T2 sequence (P31639 1-672): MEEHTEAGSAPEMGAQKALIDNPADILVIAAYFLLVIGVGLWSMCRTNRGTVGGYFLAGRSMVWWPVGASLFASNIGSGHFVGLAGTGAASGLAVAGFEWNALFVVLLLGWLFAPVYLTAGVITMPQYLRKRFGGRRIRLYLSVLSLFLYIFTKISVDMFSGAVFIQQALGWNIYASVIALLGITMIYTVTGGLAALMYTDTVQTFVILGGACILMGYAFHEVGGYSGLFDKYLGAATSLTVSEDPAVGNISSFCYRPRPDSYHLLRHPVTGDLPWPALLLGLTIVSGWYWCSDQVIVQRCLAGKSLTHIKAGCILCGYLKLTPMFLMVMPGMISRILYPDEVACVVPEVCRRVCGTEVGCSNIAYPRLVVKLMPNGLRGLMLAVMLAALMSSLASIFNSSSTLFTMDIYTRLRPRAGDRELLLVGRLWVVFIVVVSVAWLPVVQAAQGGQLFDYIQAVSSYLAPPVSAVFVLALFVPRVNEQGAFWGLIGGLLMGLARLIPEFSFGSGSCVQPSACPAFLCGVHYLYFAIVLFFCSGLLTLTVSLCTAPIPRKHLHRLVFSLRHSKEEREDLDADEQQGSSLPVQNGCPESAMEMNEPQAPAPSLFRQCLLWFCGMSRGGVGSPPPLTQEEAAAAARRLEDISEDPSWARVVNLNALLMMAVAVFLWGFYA
Outline: as §1

[1] = 0.3 μM, CHO-K1 cells expressing human SGLT1
[2] = CHO-K1 cells expressing human SGLT1, 14C-AMG uptake
[3] = 0.3 μM, CHO-K1 cells expressing human SGLT2
[4] = CHO-K1 cells expressing human SGLT2, 14C-AMG uptake
[5] = CHO-K1 cells stably expressing human SGLT1, 14C-AMG uptake, compounds of formula (I) where R0 is fluoro
[6] = CHO-K1 cells stably expressing human SGLT2, 14C-AMG uptake, compounds of formula (I) where R0 is fluoro
[7] = @ 0.3 μM, CHO-K1 cells stably expressing human SGLT1, 14C-AMG uptake
[8] = @ 0.3 μM, CHO-K1 cells stably expressing human SGLT2, 14C-AMG uptake

C[C@]1(F)[C@H](O)[C@@H](O)[C@H](c2cc(Cc3ccc4c(c3)OCCO4)c(Cl)cc2O)O[C@@H]1CO [Compound 3, (2S,3R,4R,5S,6R)-2-[4-chloro-5-(2,3-dihydro-1,4-benzodioxin-6-ylmethyl)-2-hydroxy-phenyl]-5-fluoro-6-(hydroxymethyl)-5-methyl-tetrahydropyran-3,4-diol]
inhibition at 0.3 µM (human SGLT1; [1]): 45.3%
IC50 (human SGLT1; [2]): 269 nM
response vs control in vivo at 1 mg/kg (SD rats; oral dose 1 mg/kg): 91.3 ± 2%
response vs control in vivo at 10 mg/kg (SD rats; oral dose 10 mg/kg): 69.3 ± 1.9%
Urine Glucose Excretion (g/0-4 hr) (SD rats; oral dose 1 mg/kg): 0.001 g/0-4 hr
Urine Glucose Excretion (g/0-4 hr) (SD rats; oral dose 10 mg/kg): 0.001 g/0-4 hr
inhibition at 0.3 µM (human SGLT2; [3]): 89.4%
IC50 (human SGLT2; [4]): 2.1 nM

COc1cc(O)c([C@@H]2O[C@H](CO)[C@@](C)(F)[C@H](O)[C@H]2O)cc1Cc1ccc2c(c1)OCCO2 [Compound 6, (2S,3R,4R,5S,6R)-2-(5-((2,3-dihydrobenzo[b][1,4]dioxin-6-yl)methyl)-2-hydroxy-4-methoxyphenyl)-5-fluoro-6-(hydroxymethyl)-5-methyl-tetrahydro-2H-pyran-3,4-diol]
inhibition at 0.3 µM (human SGLT1; [1]): 72.6%
IC50 (human SGLT1; [2]): 37 nM
response vs control in vivo at 1 mg/kg (SD rats; oral dose 1 mg/kg): 71.6 ± 0.7%
response vs control in vivo at 10 mg/kg (SD rats; oral dose 10 mg/kg): 55.5 ± 1.7%
Urine Glucose Excretion (g/0-4 hr) (SD rats; oral dose 1 mg/kg): 0.000 g/0-4 hr
Urine Glucose Excretion (g/0-4 hr) (SD rats; oral dose 10 mg/kg): 0.047 ± 0.008 g/0-4 hr
inhibition at 0.3 µM (human SGLT2; [3]): 92.8%
IC50 (human SGLT2; [4]): 4.3 nM

Cc1cc(O)c([C@@H]2O[C@H](CO)C(F)(F)[C@H](O)[C@H]2O)cc1Cc1cc2ccccc2s1 [Compound 25, (2S,3R,4R,6R)-2-(5-(benzo[b]thiophen-2-ylmethyl)-2-hydroxy-4-methylphenyl)-5,5-difluoro-6-(hydroxymethyl)tetrahydro-2H-pyran-3,4-diol]
IC50 (human SGLT1; [5]): 56 nM
response vs control in vivo at 1 mg/kg (SD rats; oral dose 1 mg/kg): 67.8 ± 1.7%
response vs control in vivo at 10 mg/kg (SD rats; oral dose 10 mg/kg): 36.5 ± 1.1%
Urine Glucose Excretion (g/0-4 hr) (SD rats; oral dose 1 mg/kg): 0.001 g/0-4 hr
Urine Glucose Excretion (g/0-4 hr) (SD rats; oral dose 10 mg/kg): 0.499 ± 0.04 g/0-4 hr
IC50 (human SGLT2; [6]): 3.8 nM

COc1cc(Cl)c(Cc2ccc(Cl)cc2)cc1[C@@H]1O[C@H](CO)C(F)(F)[C@H](O)[C@H]1O [Compound 168]
inhibition at 0.3 µM (human SGLT1; [7]): 43.2%
IC50 (human SGLT1; [5]): 175 nM
inhibition at 0.3 µM (human SGLT2; [8]): 77.6%
IC50 (human SGLT2; [6]): 0.9 nM

COc1cc(C#N)c(Cc2ccc(C3CC3)cc2)cc1[C@@H]1O[C@H](CO)C(F)(F)[C@H](O)[C@H]1O [Compound 169]
SGLT1 % Inh @ 0.3 μM (human SGLT1; [7]): 12.1%
SGLT2 % Inh @ 0.3 μM (human SGLT2; [8]): 78.9%

Cc1ccc(Cc2cc([C@@H]3O[C@H](CO)C(F)(F)[C@H](O)[C@H]3O)c(O)cc2Cl)cc1 [Compound 171, (2S,3R,4R,6R)-2-(4-chloro-2-hydroxy-5-(4-methylbenzyl)phenyl)-5,5-difluoro-6-(hydroxymethyl)-tetrahydro-2H-pyran-3,4-diol]
inhibition at 0.3 µM (human SGLT1; [7]): 86.4%
IC50 (human SGLT1; [5]): 12 nM
inhibition at 0.3 µM (human SGLT2; [8]): 82.4%
IC50 (human SGLT2; [6]): 0.5 nM

COc1cc(Cl)c(Cc2ccc(Cl)s2)cc1[C@@H]1O[C@H](CO)C(F)(F)[C@H](O)[C@H]1O [Compound 172]
SGLT1 % Inh @ 0.3 μM (human SGLT1; [7]): 40.4%
SGLT2 % Inh @ 0.3 μM (human SGLT2; [8]): 79.9%

N#Cc1cc(O)c([C@@H]2O[C@H](CO)C(F)(F)[C@H](O)[C@H]2O)cc1Cc1ccc(C2CC2)cc1 [Compound 173]
SGLT1 % Inh @ 0.3 μM (human SGLT1; [7]): 17.3%
SGLT2 % Inh @ 0.3 μM (human SGLT2; [8]): 83.3%

OC[C@H]1O[C@@H](c2cc3c(c(Cc4ccc(C5CC5)cc4)c2)OCC3)[C@H](O)[C@@H](O)C1(F)F [Compound 174]
SGLT1 % Inh @ 0.3 μM (human SGLT1; [7]): 38.0%
SGLT2 % Inh @ 0.3 μM (human SGLT2; [8]): 82.9%

CCc1ccc(Cc2cc([C@@H]3O[C@H](CO)C(F)(F)[C@H](O)[C@H]3O)c(O)cc2C#N)cc1 [Compound 175]
SGLT1 % Inh @ 0.3 μM (human SGLT1; [7]): 24.3%
SGLT2 % Inh @ 0.3 μM (human SGLT2; [8]): 79.9%
